Measurements published in patent publication US20050209157A1, “Short bioactive peptides and methods for their use” (priority 2001, published 2005).
≈ marks a conversion by molar mass, not a printed value. No end group written: not given here.

What was measured:
[1] = system: human leukocyte (WBC) cells; assay: Stimulation and proliferation of leukocytes, Alamar Blue; type: cell-based; conditions: 48 hours
Method: In vitro viability of human leukocyte cells in the presence of different peptides at different concentrations was determined by an Alamar Blue protocol. Alamar Blue (Promega, Madison, Wis.) is an indicator dye, formulated to measure quantitatively the proliferation and cytotoxicity of the cells. The dye consists of an oxidation-reduction (redox) indicator that yields a calorimetric change and a fluorescent signal in response to cellular metabolic activity.
Assay protocol: Blood from a human was drawn and centrifuged at 1500 rpm for 15 minutes at room temperature. The buffy coat cells at the plasma-red blood cell interface were aspirated. Buffy coat cells (mainly lymphocyte cells) were then transferred into 15 ml centrifuge tubes containing 5 ml of RPMI-1640 medium+10% Fetal Bovine Serum (Gibco, Grand Island, N.Y.). Additional medium was added to the tubes to bring the volume up to 10 ml. The buffy coat suspension was then carefully layered on 5 ml of Histopaque (Sigma Chemical Co., St. Louis, Mo.) and centrifuged at 1500 rpm for 30 minutes at room temperature. The interface which is mostly PBMCs (peripheral mononuclear cells) was aspirated and transferred to a 15 ml conical centrifuge tube and, resuspended in 2 ml cold RPMI-1640 and brought up to 15 ml with cold RPMI-1640 medium. Cells were centrifuged at 1500 rpm for 10 minutes. The supernatant was then aspirated and discarded. The cell pellet was re-suspended in 1 ml of cold RPMI 1640 and brought up to 15 ml with RPMI medium. This step was repeated twice, except that in the last step, the cells were resuspended with 1 ml of cold RPMI-1640 medium and cell counts were performed with a hemocytometer according to the Sigma cell culture catalogue.
Pokewood mitogen was used as a control along with positive and negative controls. Negative control cells were killed with 70% methanol. Positive (+) control cells were incubated in RPMI medium (untreated). […] of AlamarBlue was added to the cells, and readings were taken after 24 hours, 48 hours, 72 hours, and 96 hours using a fluorimeter (excitation 544/transmission 590 nm).
Calculations were performed using the following formula. The peptide treated sample and positive control were adjusted for negative control. [formula]
Using the protocol described immediately above, about 100-150 peptides were screened for their stimulatory and/or inhibitory actions upon the growth of human leukocyte (“WBC”) cells as compared to the growth of untreated positive control cells.
The Alamar Blue stain used in the protocol permeates both cell and nuclear membranes, and is metabolized in the mitochondria to cause the change in color. The resulting fluorometric response is therefore a result of total mitochondrial activity caused by cell stimulation and/or mitosis (cell proliferation).

[2] = system: human red blood cells (RBC); assay: in vitro; type: cell-based; conditions: for Peptide toxicity RBC LD/50: human red blood cells; for LD50: hemolytic assay, concentration at 50% hemolysis, 1 hour at 37° C.
in vitro = conditions: human, WI38 normal lung fibroblast cells
[3] = system: Pseudomonas aeruginosa ATCC 9027; assay: Antimicrobial assay I, MIC by OD measurement; type: cell-based; conditions: 37° C. for 24 hours, absorbance 620 nm
[4] = system: Staphylococcus aureus ATCC 6538; assay: Antimicrobial assay I, MIC by OD measurement; type: cell-based; conditions: 37° C. for 24 hours, absorbance 620 nm
[5] = system: yeast (Saccharomyces cerevisiae); assay: Antimicrobial assay I, yeast assay in RPMI 1640; type: cell-based; conditions: RPMI 1640 media
BMKC = assay: Anti-cancer assay, MTT, LD50; type: cell-based; conditions: BMKC cloned melanoma line, 24 hours with peptide
Description: (§1) Numbers are LD50 values (μg/mL).

H1299 = assay: Anti-cancer assay, MTT, LD50; type: cell-based; conditions: 24 hours with peptide, lung large cell carcinoma
Description: as §1

HeLaS3 = assay: Anti-cancer assay, MTT, LD50; type: cell-based; conditions: 24 hours with peptide, cervical carcinoma
Description: as §1

MCF7 = assay: Anti-cancer assay, MTT, LD50; type: cell-based; conditions: MCF7 breast adenocarcinoma line, MTT, 24 hours with peptide
Description: as §1

PC3 = assay: Anti-cancer assay, MTT, LD50; type: cell-based; conditions: 24 hours with peptide, prostate adenocarcinoma
Description: as §1

SW480 = assay: Anti-cancer assay, MTT, LD50; type: cell-based; conditions: SW480 colon adenocarcinoma line, 24 hours with peptide
Description: as §1

WI38 = conditions: MTT, 24 hours with peptide; normal fibroblast line
[6] = Peptide toxicity WI-38 LD/50, human fibroblast cells
[7] = LD50 WI38, WI38 normal lung fibroblast line, MTT, 24 hours with peptide

Row | Molecule | Peptide treated cell activity Percent stimulation relative to control ([1]; 0.1 ug/ml) [%] | Peptide treated cell activity Percent stimulation relative to control ([1]; 1 ug/ml) [%] | Peptide treated cell activity Percent stimulation relative to control ([1]; 10 ug/ml) [%] | Peptide treated cell activity Percent stimulation relative to control ([1]; 100 ug/ml) [%] | Peptide treated cell activity Percent stimulation relative to control ([1]; 500 ug/ml) [%] | Peptide toxicity RBC LD/50 [2] | CC50 at 24 h (in vitro; [6]) [µg/mL] | paerug9027 (MIC) [3] [µg/mL] | staph6538 (MIC) [4] | yeast (MIC or MFC) [5] [µg/mL] | LD50 BMKC (BMKC) [µg/mL] | H1299 LD50 (H1299) | HeLaS3 LD50 (HeLaS3) | LD50 MCF7 (MCF7) | PC3 LD50 (PC3) | LD50 SW480 (SW480) | LD50 [2] | WI38 LD50 (WI38) [µg/mL] | CC50 at 24 h (in vitro; [7]) [µg/mL]
1 | FAKLLAKLAKAKA-NH2 [compound 61] | 110 | 115 | 116 | 124 | 114 | >1000 | > 1000 |  |  |  |  |  |  |  |  |  |  |  | 
2 | FAVGLRAIKRALKKLRRGVRKVAKDL-NH2 [compound 119] | 88 | 108 | 54 | 117 | 89 | 850 | 500 |  |  |  |  |  |  |  |  |  |  |  | 
3 | FAKLLAKLAKKLL-NH2 [compound 25] | 78 | 82 | 71 | 14 | 12 | 20 | 5 |  |  |  |  |  |  |  |  |  |  |  | 
4 | MPKEKVFLKIEKMGRNIRN-NH2 [compound 71] | 101 | 100 | 108 | 109 | 110 | >1000 | > 1000 |  |  |  |  |  |  |  |  |  |  |  | 
5 | FAKLLAKALKKAL-NH2 [compound 66] | 100 | 102 | 97 | 37 | 17 | 500 | 210 |  |  |  |  |  |  |  |  |  |  |  | 
6 | CC(C)C[C@H](NC(=O)[C@H](C)NC(=O)[C@H](CC(C)C)NC(=O)[C@H](CCCCN)NC(=O)[C@H](C)NC(=O)[C@H](CC(C)C)NC(=O)[C@H](CCCCN)NC(=O)[C@H](CCCCN)NC(=O)[C@H](C)NC(=O)[C@H](CC(C)C)NC(=O)[C@H](CCCCN)NC(=O)[C@H](C)NC(=O)[C@H](CC(C)C)NC(=O)[C@H](CCCCN)NC(=O)[C@H](CCCCN)NC(=O)[C@H](C)NC(=O)[C@@H](N)Cc1ccccc1)C(N)=O [compound 17] | 82 | 76 | 61 | 18 | 16 | 200 | 8 (≈ 4.31 µM) |  |  |  |  |  |  |  |  |  |  |  | 
7 | MPKWKVFKKIEKVGRNIRNGIVKAGPAIAVLGEAKALG-NH2 [compound 5] | 111 | 115 | 118 | 116 | 101 | >1000 | 950 |  |  |  |  |  |  |  |  |  |  |  | 
8 | FAKKLAKLAKKLLAL-NH2 [compound 20] | 79 | 82 | 78 | 37 | 36 | 350 | 12 |  |  |  |  |  |  |  |  |  |  |  | 
9 | FALKALKKLKKALKKAL-NH2 [compound 115] | 93 | 92 | 37 | 72 | 29 | 780 | 130 |  |  |  |  |  |  |  |  |  |  |  | 
10 | FAKLAKKALAKLL-NH2 [P148] |  |  |  |  |  |  |  | 200 | > (> indicates greater than 200 μg/mL) | 200 | 330 | 660 µg/mL | > (> indicates greater than 1000) | 315 µg/mL | > (> indicates greater than 1000) | > (> indicates greater than 1000) | > (> indicates greater than 1000) | 380 | 380
11 | FAKLLAKKLL-NH2 [P57] |  |  |  |  |  |  |  | 200 | 100 µg/mL | 200 | 740 | > (> indicates greater than 1000) | 830 µg/mL | > (> indicates greater than 1000) | > (> indicates greater than 1000) | 740 µg/mL | > (> indicates greater than 1000) | 900 | 900
12 | FAKLLAKLAKKSL-NH2 [P127] |  |  |  |  |  |  |  | 25 | 100 µg/mL | 100 | 535 | 770 µg/mL | 610 µg/mL | 440 µg/mL | > (> indicates greater than 1000) | 400 µg/mL | > (> indicates greater than 1000) | 760 | 760
13 | FAKIIAKIAKIAKKIL-NH2 [P139] |  |  |  |  |  |  |  | 25 | 50 µg/mL | 200 | 525 | 850 µg/mL | > (> indicates greater than 1000) | 625 µg/mL | > (> indicates greater than 1000) | > (> indicates greater than 1000) | > (> indicates greater than 1000) | 550 | 550
14 | FAKLLALALKKAL-NH2 [compound 165] | 107 | 109 | 106 | 27 | 22 | 350 |  |  |  |  |  |  |  |  |  |  |  |  | 
15 | FALALKLKKL-NH2 [P181] |  |  |  |  |  |  |  | 200 | 100 µg/mL | 100 | 830 | > (> indicates greater than 1000) | > (> indicates greater than 1000) | 550 µg/mL | > (> indicates greater than 1000) | 870 µg/mL | > (> indicates greater than 1000) | 500 | 500
